According to patent US20250228239A1, “MOLECULES HAVING PESTICIDAL UTILITY, AND INTERMEDIATES, COMPOSITIONS, AND PROCESSES, RELATED THERETO” (priority 2024, published 2025):

Legend:
Format in all cases: in vivo
[1] = test system: Yellow Fever Mosquito (Aedes aegypti, AEDSAE); settings: Yellow Fever Mosquito; rating class
How it was run: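 Compounds from DMSO master plates (4000 ppm stock) diluted in 90:10 water/acetone, then dispensed into six replicate plates and infested with ~1-day-old Aedes aegypti larvae in liver-powder water. Held covered at room temperature for 3 days; each well scored for larval mortality and graded on a rating scale.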

[2] = test system: Beet Armyworm (Spodoptera exigua, LAPHEG); experiment: Bioassays on Beet Armyworm (BAW), 128-well diet tray assay; settings: Spodoptera exigua; Beet Armyworm; rating class; read-out: BAW
How it was run: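 One to five second-instar larvae per well on artificial diet surface-treated with 50 μg/cm^2 test molecule (applied in 90:10 acetone-water, dried), eight wells per compound. Trays held vented at 25° C., 14:10 light-dark for five to seven days; percent mortality averaged over the eight wells.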

[3] = test system: Cabbage Looper (Trichoplusia ni, TRIPNI); experiment: Bioassays on Cabbage Looper (CL), 128-well diet tray assay; settings: Trichoplusia ni; Cabbage Looper; rating class; read-out: CL
How it was run: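 Activity is mean percent mortality over eight wells of second-instar larvae exposed to diet treated at 50 μg/cm^2 for 5–7 days at 25° C.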

CCOC(C)C(=O)Nc1c(F)ccc(NC(=O)c2cc(NC(=O)[C@H]3[C@H](c4ccc(Cl)c(C(F)(F)F)c4)C3(Cl)Cl)ccc2Cl)c1F (stereo partly drawn) [F1660, 2-Chloro-5-((1R,3R)-2,2-dichloro-3-(4-chloro-3-(trifluoromethyl)phenyl)cyclopropane-1-carboxamido)-N-(3-(2-ethoxypropanamido)-2,4-difluorophenyl)benzamide]
YFM [1]: A (80–100)
pest or weed control at 50 µg/cm2 [2]: 50 to 100%
pest or weed control at 50 µg/cm2 [3]: 50 to 100%

O=C(Nc1ccc(F)c(NC(=O)C2CCCO2)c1F)c1cc(NC(=O)[C@H]2[C@H](c3ccc(Cl)c(C(F)(F)F)c3)C2(Cl)Cl)ccc1Cl (stereo partly drawn) [F1661, N-(3-(2-Chloro-5-((1R,3R)-2,2-dichloro-3-(4-chloro-3-(trifluoromethyl)phenyl)cyclopropane-1-carboxamido)benzamido)-2,6-difluorophenyl)tetrahydrofuran-2-carboxamide]
YFM [1]: A (80–100)
pest or weed control at 50 µg/cm2 [2]: 50 to 100%
pest or weed control at 50 µg/cm2 [3]: 50 to 100%

CCC(Cl)C(=O)Nc1c(F)ccc(NC(=O)c2cc(NC(=O)[C@H]3[C@H](c4ccc(F)c(C(F)(F)F)c4)C3(Cl)Cl)ccc2Cl)c1F (stereo partly drawn) [F1668, 2-Chloro-N-(3-(2-chlorobutanamido)-2,4-difluorophenyl)-5-((1R,3R)-2,2-dichloro-3-(4-fluoro-3-(trifluoromethyl)phenyl)cyclopropane-1-carboxamido)benzamide]
YFM [1]: A (80–100)
pest or weed control at 50 µg/cm2 [2]: 50 to 100%
pest or weed control at 50 µg/cm2 [3]: 50 to 100%

CC(Cl)CC(=O)Nc1c(F)ccc(NC(=O)c2cc(NC(=O)[C@H]3[C@H](c4ccc(F)c(C(F)(F)F)c4)C3(Cl)Cl)ccc2Cl)c1F (stereo partly drawn) [F1669, 2-Chloro-N-(3-(3-chlorobutanamido)-2,4-difluorophenyl)-5-((1R,3R)-2,2-dichloro-3-(4-fluoro-3-(trifluoromethyl)phenyl)cyclopropane-1-carboxamido)benzamide]
YFM [1]: A (80–100)
pest or weed control at 50 µg/cm2 [2]: 50 to 100%
pest or weed control at 50 µg/cm2 [3]: 50 to 100%

O=C(Nc1c(F)ccc(NC(=O)c2cc(NC(=O)[C@H]3[C@H](c4ccc(Cl)c(Cl)c4)C3(Cl)Cl)ccc2Cl)c1F)c1ccno1 [F1671, N-(3-(2-Chloro-5-((1R,3R)-2,2-dichloro-3-(3,4-dichlorophenyl)cyclopropane-1-carboxamido)benzamido)-2,6-difluorophenyl)isoxazole-5-carboxamide]
YFM [1]: B (More than 0 – Less than 80)
pest or weed control at 50 µg/cm2 [2]: 50 to 100%
pest or weed control at 50 µg/cm2 [3]: 50 to 100%

O=C(Nc1ccc(F)c(NC(=O)C(F)F)c1F)c1cc(NC(=O)[C@H]2[C@H](c3cccc(C(F)(F)F)c3)C2(Cl)Cl)ccc1Cl [F1675, 2-Chloro-5-((1R,3R)-2,2-dichloro-3-(3-(trifluoromethyl)phenyl)cyclopropane-1-carboxamido)-N-(3-(2,2-difluoroacetamido)-2,4-difluorophenyl)benzamide]
YFM [1]: A (80–100)
pest or weed control at 50 µg/cm2 [2]: 50 to 100%
pest or weed control at 50 µg/cm2 [3]: 50 to 100%

CCC(=O)Nc1c(F)ccc(NC(=O)c2cc(NC(=O)[C@H]3[C@H](c4cccc(C(F)(F)F)c4)C3(Cl)Cl)ccc2Cl)c1F [F1679, 2-Chloro-5-((1R,3R)-2,2-dichloro-3-(3-(trifluoromethyl)phenyl)cyclopropane-1-carboxamido)-N-(2,4-difluoro-3-propionamidophenyl)benzamide]
YFM [1]: A (80–100)
pest or weed control at 50 µg/cm2 [2]: 50 to 100%
pest or weed control at 50 µg/cm2 [3]: 50 to 100%

Cc1c(F)c(NC(=O)c2cc(NC(=O)[C@H]3[C@H](c4ccc(F)c(C(F)(F)F)c4)C3(Cl)Cl)ccc2Cl)cc(NC(=O)C(F)F)c1F [F1680, 2-Chloro-5-((1R,3R)-2,2-dichloro-3-(4-fluoro-3-(trifluoromethyl)phenyl)cyclopropane-1-carboxamido)-N-(5-(2,2-difluoroacetamido)-2,4-difluoro-3-methylphenyl)benzamide]
YFM [1]: B (More than 0 – Less than 80)
pest or weed control at 50 µg/cm2 [2]: 50 to 100%
pest or weed control at 50 µg/cm2 [3]: 50 to 100%

O=C(CC1CC1)Nc1c(F)ccc(NC(=O)c2cc(NC(=O)[C@H]3[C@H](c4ccc(F)c(C(F)(F)F)c4)C3(Cl)Cl)ccc2Cl)c1F [F1682, 2-Chloro-N-(3-(2-cyclopropylacetamido)-2,4-difluorophenyl)-5-((1R,3R)-2,2-dichloro-3-(4-fluoro-3-(trifluoromethyl)phenyl)cyclopropane-1-carboxamido)benzamide]
YFM [1]: A (80–100)
pest or weed control at 50 µg/cm2 [2]: 50 to 100%
pest or weed control at 50 µg/cm2 [3]: 50 to 100%

Cc1c(N)ccc(Br)c1NC(=O)c1cc(NC(=O)[C@H]2[C@H](c3ccc(F)c(C(F)(F)F)c3)C2(Cl)Cl)ccc1Cl [F1684, N-(3-Amino-6-bromo-2-methylphenyl)-2-chloro-5-((1R,3R)-2,2-dichloro-3-(4-fluoro-3-(trifluoromethyl)phenyl)cyclopropane-1-carboxamido)benzamide]
YFM [1]: B (More than 0 – Less than 80)
pest or weed control at 50 µg/cm2 [2]: 50 to 100%
pest or weed control at 50 µg/cm2 [3]: 50 to 100%

O=C(Nc1ccc(F)c(NC(=O)C(Cl)Cl)c1F)c1cc(NC(=O)[C@H]2[C@H](c3cc(Cl)c(Cl)c(Cl)c3)C2(Cl)Cl)ccc1Cl [F1685, 2-Chloro-5-((1R,3R)-2,2-dichloro-3-(3,4,5-trichlorophenyl)cyclopropane-1-carboxamido)-N-(3-(2,2-dichloroacetamido)-2,4-difluorophenyl)benzamide]
YFM [1]: A (80–100)
pest or weed control at 50 µg/cm2 [2]: 50 to 100%
pest or weed control at 50 µg/cm2 [3]: 50 to 100%

O=C(Nc1ccc(F)c(NC(=O)C(F)(F)Cl)c1F)c1cc(NC(=O)[C@H]2[C@H](c3cc(Cl)c(Cl)c(Cl)c3)C2(Cl)Cl)ccc1Cl [F1686, 2-Chloro-N-(3-(2-chloro-2,2-difluoroacetamido)-2,4-difluorophenyl)-5-((1R,3R)-2,2-dichloro-3-(3,4,5-trichlorophenyl)cyclopropane-1-carboxamido)benzamide]
YFM [1]: A (80–100)
pest or weed control at 50 µg/cm2 [2]: 50 to 100%
pest or weed control at 50 µg/cm2 [3]: 50 to 100%

Nc1c(F)ccc(NC(=O)c2cc(NC(=O)[C@H]3[C@H](c4cc(F)cc(C(F)(F)F)c4)C3(Cl)Cl)ccc2Cl)c1F [F1687, N-(3-Amino-2,4-difluorophenyl)-2-chloro-5-((1R,3R)-2,2-dichloro-3-(3-fluoro-5-(trifluoromethyl)phenyl)cyclopropane-1-carboxamido)benzamide]
YFM [1]: A (80–100)
pest or weed control at 50 µg/cm2 [2]: 50 to 100%
pest or weed control at 50 µg/cm2 [3]: 50 to 100%

Cc1c(NC(=O)c2cc(NC(=O)[C@H]3[C@H](c4ccc(F)c(C(F)(F)F)c4)C3(Cl)Cl)ccc2Cl)ccc(Br)c1[N+](=O)[O-] [F1688, N-(4-Bromo-2-methyl-3-nitrophenyl)-2-chloro-5-((1R,3R)-2,2-dichloro-3-(4-fluoro-3-(trifluoromethyl)phenyl)cyclopropane-1-carboxamido)benzamide]
YFM [1]: A (80–100)
pest or weed control at 50 µg/cm2 [2]: 50 to 100%
pest or weed control at 50 µg/cm2 [3]: 50 to 100%

CO[C@H](C)C(=O)Nc1c(F)ccc(NC(=O)c2cc(NC(=O)[C@H]3[C@H](c4ccc(F)c(C(F)(F)F)c4)C3(Cl)Cl)ccc2Cl)c1F [F1689, 2-Chloro-5-((1R,3R)-2,2-dichloro-3-(4-fluoro-3-(trifluoromethyl)phenyl)cyclopropane-1-carboxamido)-N-(2,4-difluoro-3-((R)-2-methoxypropanamido)phenyl)benzamide]
YFM [1]: B (More than 0 – Less than 80)
pest or weed control at 50 µg/cm2 [2]: 50 to 100%
pest or weed control at 50 µg/cm2 [3]: 50 to 100%

Cc1c(NC(=O)c2cc(NC(=O)[C@H]3[C@H](c4ccc(F)c(C(F)(F)F)c4)C3(Cl)Cl)ccc2Cl)ccc(Br)c1N [F1690, N-(3-Amino-4-bromo-2-methylphenyl)-2-chloro-5-((1R,3R)-2,2-dichloro-3-(4-fluoro-3-(trifluoromethyl)phenyl)cyclopropane-1-carboxamido)benzamide]
YFM [1]: A (80–100)
pest or weed control at 50 µg/cm2 [2]: 50 to 100%
pest or weed control at 50 µg/cm2 [3]: 50 to 100%

O=C(Nc1ccc(F)c(NC(=O)[C@H]2CCCO2)c1F)c1cc(NC(=O)[C@H]2[C@H](c3ccc(F)c(C(F)(F)F)c3)C2(Cl)Cl)ccc1Cl [F1691, (R)—N-(3-(2-Chloro-5-((1R,3R)-2,2-dichloro-3-(4-fluoro-3-(trifluoromethyl)phenyl)cyclopropane-1-carboxamido)benzamido)-2,6-difluorophenyl)tetrahydrofuran-2-carboxamide]
YFM [1]: B (More than 0 – Less than 80)
pest or weed control at 50 µg/cm2 [2]: 50 to 100%
pest or weed control at 50 µg/cm2 [3]: 50 to 100%

O=C(Nc1ccc(F)c(NC(=O)[C@@H]2CCCO2)c1F)c1cc(NC(=O)[C@H]2[C@H](c3ccc(F)c(C(F)(F)F)c3)C2(Cl)Cl)ccc1Cl [F1692, (S)—N-(3-(2-Chloro-5-((1R,3R)-2,2-dichloro-3-(4-fluoro-3-(trifluoromethyl)phenyl)cyclopropane-1-carboxamido)benzamido)-2,6-difluorophenyl)tetrahydrofuran-2-carboxamide]
YFM [1]: B (More than 0 – Less than 80)
pest or weed control at 50 µg/cm2 [2]: 50 to 100%
pest or weed control at 50 µg/cm2 [3]: 50 to 100%

O=C(Nc1ccc(F)c(NC(=O)C2CCCO2)c1F)c1cc(NC(=O)[C@H]2[C@H](c3cc(F)cc(C(F)(F)F)c3)C2(Cl)Cl)ccc1Cl (stereo partly drawn) [F1706, N-(3-(2-Chloro-5-((1R,3R)-2,2-dichloro-3-(3-fluoro-5-(trifluoromethyl)phenyl)cyclopropane-1-carboxamido)benzamido)-2,6-difluorophenyl)tetrahydrofuran-2-carboxamide]
YFM [1]: A (80–100)
pest or weed control at 50 µg/cm2 [2]: 50 to 100%
pest or weed control at 50 µg/cm2 [3]: 50 to 100%
